Laboratory results published in a melting point compilation (Tetko et al.; mined from patent text by program, amines drawn as free bases though some values may be those of a salt).

Compound | melting point
CNC(=O)Nc1ccc2[nH]cc(CCN)c2c1 | 188 to 190 °C
OC(c1cc(F)ccc1F)c1ccncc1Cl (stereo unspecified) | 169 to 170 °C
Nc1c(C(=O)c2ccccc2)cnc2[nH]ncc12 | 282 to 283 °C
CC(CC1=C(O)C(=O)c2ccccc2C1=O)C(F)(F)F (stereo unspecified) | 168 °C
O=c1[nH]c2ncc(-c3cnc4[nH]cnc4c3)nc2n1CC1CCOCC1 | 367 to 370 °C
COC(=O)C1=C(C)NC(CF)=C(C(=O)OC)C1c1c(F)c(F)c(F)c(F)c1F (stereo unspecified) | 148 to 150 °C
CCOC(=O)c1c(N)sc(-c2ccc([N+](=O)[O-])cc2)c1C | 117 to 119 °C
CSc1nccc(CC(=O)c2ccc(Cl)cc2Cl)n1 | 105 to 107 °C
CCOC(=O)[C@H](Cc1ccc(-c2c(OC)cc(COS(C)(=O)=O)cc2OC)cc1)NC(=O)c1c(F)cccc1F | 125 to 126 °C
O=C(NC1CCCCC1)c1c(O)c2cscc2[nH]c1=O | 244 °C
O=C(O)C(CC1CCCCC1)c1ccc(OCc2ccc3ccccc3n2)cc1 (stereo unspecified) | 148 to 150 °C
CON=C(Cn1c(=O)ccc2ccccc21)c1ccc(C)cc1 | 129 to 132 °C
CCOC(=O)/C=C/c1ccc(OCCc2nc(-c3cccc(C)c3)oc2C)cc1 | 90 to 91 °C
CC(C)c1cccc(C(C)C)c1NC(=O)Nc1nnn(Cc2ccccc2)n1 | 180 to 181 °C
Cc1noc(C)c1S(=O)(=O)n1nnc2cc3c(cc21)OC(F)(F)O3 | 120 to 123 °C
Cc1cc2c(cc1C)N(C)c1cscc1C(=O)N2 | 260 to 262 °C
COc1cccc([C@H]2O[C@H](CC(=O)N[C@@H](CCSC)C(=O)O)C(=O)N(CC(C)(C)CO)c3ccc(Cl)cc32)c1OC | 129 to 130 °C
CC(C)C1Sc2ccccc2N(CC(=O)O)C1=S (stereo unspecified) | 175 to 176 °C

Compound | melting point
CCCCOCc1cc(-n2nc(C(N)=O)nc2-c2ccccc2)ccc1Cl | 96 to 98 °C
COc1ccc(N2CCN(C(=O)CC3CCCc4ccccc43)CC2)cc1 (stereo unspecified) | 133 to 134 °C
N#Cc1ccc(Oc2ccc(Cl)c(Cl)c2)c(C=O)c1 | 122 to 126 °C
COc1cc(OCCCN2CCN(c3nn(C(=O)c4ccccc4)c4cc(F)ccc34)CC2)ccc1C(C)=O | 138 to 140 °C
Nn1cc(Cl)c(=O)[nH]c1=O | 224 to 225 °C
CCOC(=O)N1Cc2ccccc2C2(Cc3ccccc3O2)C1 (stereo unspecified) | 65 to 75 °C
O=C1NCc2c(-c3ccccc3)cccc2N1Cc1ccccc1 | 198 to 199 °C
CCOC(=O)Cc1cccc(-c2nc(COc3ccc(COc4nn(-c5ccccc5)cc4C=O)cc3OC)c(C)o2)c1 | 145 to 146 °C
CC(C)(C)NC(=O)[C@@H]1C[C@@H]2CCCC[C@@H]2CN1C[C@@H](O)[C@@H](N)Cc1ccccc1 | 175 to 176 °C
Cc1cc(-c2[nH]c3ccc(N)cc3c2C)cc(C)c1O | 184 to 185 °C
CS(=O)(=O)Nc1cc(-c2nc3ccccn3c2Br)c(F)cc1F | 202 °C
O=C(Cc1ccccc1)Nc1ccc(NC(=O)OCc2ccccc2)c(O)c1 | 252 °C
Cc1ccc(Oc2ccc(Cl)cn2)c(Oc2ccc(Cl)cn2)c1 | 87 to 90 °C
CCCCCCCCC=CCCCCCCCCN1CC(C(=O)OC)N(S(=O)(=O)c2ccc(-c3ccc(Br)cc3)cc2)CC1=O (stereo unspecified) | 108 °C
O=C(O)C1C=CCn2c(=O)n(CCS)c(=O)n21 (stereo unspecified) | 156 to 158 °C
CN(C)c1ncnc2c(NC3OC(CO)C(O)C3O)ncnc12 (stereo unspecified) | 231 °C
CSc1nn2c(N3CCNCC3)cc(C)nc2c1S(=O)(=O)c1ccccc1 | 137 to 139 °C
CC1CN(C(=O)Nc2ccc(Cl)cc2)N=C1c1ccc(Cl)cc1 (stereo unspecified) | 139 to 140 °C

The remaining lines, values ahead:

melting point | Compound
150 to 152 °C | COCCOCc1c(CN(C)CC(O)c2ccccn2)sc2c(=O)c(C(=O)NCc3ccc(Cl)cc3)cn(C)c12 (stereo unspecified)
68 to 71 °C | CCCCCCCCCCOCC(COCCCCCCCCCC)(CC(=O)O)CC(=O)O
145 to 149 °C | CC(C)C1(C)NC(c2ncccc2CO)=NC1=O (stereo unspecified)
110 to 111 °C | C=Cc1nc(NC)sc1-c1ccncc1
128 to 130 °C | COc1cc(OC)cc(S(=O)(=O)c2ccc(N)cc2)c1
152 to 154 °C | NS(=O)(=O)c1ccc(Nc2nc(OCC3CCCCC3)c3[nH]cnc3n2)cc1
118 to 120 °C | CCOC(=O)C1[C@@H]2[C@@H](O)[C@@H]3O[C@H](c4ccc(OC)cc4)OC[C@H]3O[C@H]12 (stereo partly specified)
252 to 254 °C | COc1cc2ncnc(N3CCN(C(=O)Nc4ccc(N(C)C)cc4)CC3)c2cc1OC
172 to 173 °C | CC#CCOc1cc(/C=C/C(=O)Nc2cc(Cl)ccc2C(=O)NC)ccc1OC
301 to 303 °C | COc1cc(OC)c2c(=O)cc(-c3ccc(O)cc3)oc2c1
52 to 53 °C | CCCCCCCCCCCCCCCCCC1=NCCO1
95 °C | C=CCOc1ccc(C(=O)c2ccc(OCC=C)cc2O)c(O)c1
138 to 139 °C | Cc1c(CO)c(CO)c2sc3ccccc3n12
180 to 181 °C | CN(C)C=C(C#N)C(=O)Nc1c(F)cccc1F
209 to 212 °C | O=S(=O)(CCO)c1ccc(S(=O)(=O)CCO)cc1
238 to 239 °C | Cc1nc(-c2ccccc2C(F)(F)F)c2c(n1)N(c1ccc(C(C)C)cc1Br)CC(=O)N2
248 to 250 °C | NS(=O)(=O)c1cc2ncc(O)cc2s1
178 to 192 °C | COc1ccc(OC)c(CN2CCc3cc(O)ccc3C2)c1

melting point | Compound
229 to 230 °C | Nc1ccc(C(=O)c2cccnc2)cc1[N+](=O)[O-]
164 to 166 °C | COc1ccc(COc2ccc(C(=O)N3CCc4cc(/C=C/CN(C)C)ccc43)cc2)cc1
113 to 116 °C | COc1ccc2[nH]c(SC/C=C(\C)CCC=C(C)C)nc2c1
40 to 43 °C | CN(C)C(c1cccc(F)c1)C1CCC(C=O)CC1 (stereo unspecified)
143 to 146 °C | O=[N+]([O-])C=C1SCCCN1Cc1cccnc1
249 to 250 °C | O=C1Nc2cccnc2C(=O)N2CCCC12 (stereo unspecified)
137 to 138 °C | CC1=NC(c2ccc(F)cc2F)c2ccccc2CN1C (single isomer, unassigned; (+))
168 to 171 °C | COc1ccnc(Cl)c1C#N
74 to 76 °C | Cc1ccc(C[C@@H]2CN(C(=O)/C=C/c3ccc(C(F)(F)F)cc3)CCN2C(=O)c2cc(C(F)(F)F)cc(C(F)(F)F)c2)cc1C
214 to 217 °C | COc1ccc2cc(C(C)=CC(=O)O)cc(F)c2c1
93 to 99 °C | CCc1c(-c2ccccc2)c2c(COCCCN3CCCCC3)cc3c(O)ccc1n32
150 to 151 °C | COc1cc(OC)c(CN2CCc3cc(O)c(OC)cc3C2)c(OC)c1
192 °C | CCCCCCCCCCCCCCCCCCNC(=O)C(=O)Nc1ccc(O)cc1
203 to 204 °C | CCN1CCc2ccc(Nc3ncc(Br)c(Nc4ccccc4C(=O)NC)n3)cc2CC1
276 °C | CCOc1cc(-c2cc(C(F)(F)F)n3ncc(C(=O)Nc4nc(C)c(S(=O)(=O)NC(C)(C)CO)s4)c3n2)ccc1C(F)(F)F
88 to 92 °C | O=C(O)C1Cc2ccccc2N1S(=O)(=O)c1ccc(-c2ccc(F)cc2F)cc1 (stereo unspecified)
103 to 105 °C | COC(=O)c1cc(C)c(C(OC(=O)C(C)NS(=O)(=O)c2ccc(C)cc2)c2cc(-n3ccnc3)ccc2C)c(C)c1 (stereo unspecified)
